In US20020115724A1, “Methods and agents for inhibiting protein aging” (priority 1985, published 2002):
Structures can show the parent of a compound that is named as a salt.

Key:
kidney = details: in vivo; cited from earlier work
histamine = details: in vivo; cited from earlier work
diabetic rats [1] = details: cited from earlier work
[2] = tested on: demineralized bone matrix particles; assay: Bone differentiation of AGE-modified demineralized bone matrix implanted in rats; assay type: in vivo, rat
Experimental: In order to assess the possible role of hyperglycemia-induced matrix modifications in this process, demineralized bone matrix particles from 35 week old normal Long-Evans rats were prepared. Matrix is incubated in phosphate buffered saline alone (PBS), PBS containing various sugar precursors of AGE (PBS−G), and PBS with sugars plus the AGE-inhibitor aminoguanidine (PBS−G+AG). After incubation, the matrix is washed and implanted subcutaneously in normal rats. Twelve days after implantation, ^45CaCl2 is injected to determine implant mineralization, and alkaline phosphatase activity is measured to assess osteoblast function. Duplicate specimens are fixed, embedded and stained for histologic evaluation.

[3] = Irritation on intraperitoneal injection, salt compared with free base; assay type: in vivo
diabetic rats [4] = details: cited from earlier work; remark: listed apart in the source
BB/Worcester rat = assay: Tail tendon collagen solubility (pepsin), BB/Worcester rats; assay type: in vivo; details: 6 months; for Collagen Solubility: tail tendon
Experimental: (§1) Streptozotocin-diabetic male Lewis rats were treated for a 9-month time period with daily doses of aminoguanidine hydrochloride of 0, 6.25, 12.5, 25, and 50 mg/kg/day. After the treatment period, collagen in tail tendon fiber was subjected to solubility determination. Ten mg samples were incubated with gentle rocking for 5 hours at 4° C. in 5 ml of 0.5M acetic acid containing 1 mg pepsin. The samples were then centrifuged at 50,000× g for 1 hour, and the soluble and insoluble fraction separated by decanting. Each fraction was hydrolyzed in 6N HCl and total hydroxyproline measured.
The effect of aminoguanidine administration on collagen cross-linking was examined in a genetically-diabetic animal model, the BB/Worcester rat. Once the animals become diabetic, daily insulin injections are essential for survival. Glucose levels are maintained at a moderate level (250-350 mg %), much lower than in the streptozotocin-diabetic animals (>500 mg %).
Diabetic and non-diabetic controls were treated orally with aminoguanidine hydrochloride at 12.5 and 50 mg/kg/day for 6 months. Control animals were dosed with water only. Tail tendon collagen solubility was then determined by the pepsin method described in Example IX.

normal and diabetic rats = assay: Aorta collagen solubility (acetic acid, CNBr, pepsin); assay type: in vivo, rat; details: 25 mg/kg daily i.p., 16 weeks
Experimental: The experiment consisted of giving both normal and diabetic rats daily intraperitoneal doses of the agent aminoguanidine hydrochloride at a dose of 25 mg per kilogram of body weight, for a period of 16 weeks. […] Diabetes was induced prior to drug therapy with a single dose of streptozotocin. Control animals, both diabetic and normal, received no drug.
Aorta samples from the same groups of animals described in Example IV above were subjected to analysis for Advanced Glycosylation Endproducts (A.G.E.) content and solubility.
Aortas were finely minced with dissecting scissors, delipidated with 5 mL of chloroform: methanol (2:1), washed 5 times with buffer, and divided into aliquots for the following assessments of cross-linking:
(B) Solubility in 0.5M acetic acid was determined after 2 hours of extraction at 25° C. and 24 hours at 4° C.
(C) Solubility after cyanogen bromide cleavage at 30° C. for 18 hours was determined.
(D) Solubility after degradation by pepsin (1.0 mg/mL) in 0.1 M acetate buffer, pH 4.1, at 37° C. for 48 hours.
After treatment for the prescribed period, soluble material was separated from insoluble material by centrifugation (50,000× g, 1 hour), and all fractions were lyophilized and hydrolyzed in 6M HCl for determination of total hydroxyproline.

[5] = tested on: Streptozotocin-diabetic male Lewis rats; assay: Tail tendon collagen solubility (pepsin), streptozotocin-diabetic rats; assay type: in vivo, rat; details: 9 months; for Collagen Solubility: tail tendon
Experimental: as §1

bovine serum albumin = assay: Formation of fluorescent advanced glycosylation end products in albumin incubated with glucose; assay type: biochemical; details: 200 mM agent, 6 mg/mL BSA, 200 mM glucose, 37° C., two-week incubation, vs control
Experimental: To measure the ability of certain of the agents of the present invention to inhibit the production of advanced glycosylated end products in vitro, albumin and glucose were incubated together for two weeks in the presence of several test agents. Samples were taken at regular intervals for analysis. Advanced glycosylation end products were measured as appearance of fluorescent compounds, and early glycosylation products were measured by incorporation of radiolabeled glucose into albumin. Reaction conditions were as follows. […]
After the incubation periods, samples were treated as follows. After dialysis to remove all unbound glucose, the amount of protein present was measured with a standard dye-binding assay. The amount of glucose which became bound to the albumin, a measure of early glycosylation products, was determined by precipitating albumin with trichloroacetic acid and measuring the radioactivity of the bound glucose using scintillation counting.
The results of this experiment are expressed graphically in FIG. 1. For each sample, incorporation of radiolabeled glucose is indicated by the solid portion of the bar, and fluorescence is indicated in the open portion of the bar. All values are expressed as per milligram of albumin. […]

N=C(N)NN [aminoguanidine hydrochloride]
immunoglobulin trapping in the kidney (kidney): reduction of immunoglobulin trapping in the kidney | levels of histamine (histamine): increase levels of histamine | increased cross-linking of collagen (tendon fiber breaking time in urea bath, mechanical strength) (diabetic rats [1]): prevented | bone differentiation ([2]; matrix incubated with AGE precursor plus aminoguanidine, implanted subcutaneously, 12 days): 80 % of control | matrix AGE content (specific fluorescence) ([2]; simultaneous incubation of matrix with AGE precursor and aminoguanidine): reduced fluorescence to normal | irritation compared with the parent free base [3]: less irritating | kidney glomerular basement membrane protein crosslinking (diabetic rats [4]): diminishes kidney glomerular basement membrane protein crosslinking in diabetic rats | prevention of the diabetes-induced fall in tail tendon collagen solubility (BB/Worcester rat; 12.5 and 50 mg/kg/day orally): prevented significantly, in a dose-dependent manner | Collagen Solubility (BB/Worcester rat; Diabetic, 12.5 mg/kg/day orally): 66.7 ± 1.2% | Collagen Solubility (BB/Worcester rat; Diabetic, 50 mg/kg/day orally): 75.9 ± 0.4% | Collagen Solubility (BB/Worcester rat; Normal, 50 mg/kg/day orally): 88.2 ± 0.2% | Percent collagen solubilized by 0.5 M acetic acid (normal and diabetic rats; diabetic rats): 12.6 ± 0.3% | Percent collagen solubilized by CNBr (normal and diabetic rats; diabetic rats): 10.6 ± 0.1% | Percent collagen solubilized by Pepsin (normal and diabetic rats; diabetic rats): 46.1 ± 0.4% | Percent collagen solubilized by 0.5 M acetic acid (normal and diabetic rats; normal rats): 18.7 ± 0.3% | Percent collagen solubilized by CNBr (normal and diabetic rats; normal rats): 13.6 ± 0.3% | Percent collagen solubilized by Pepsin (normal and diabetic rats; normal rats): 52.5 ± 0.2% | prevention of the diabetes-induced fall in tail tendon collagen solubility ([5]; 6.25 up to 50 mg/kg/day orally): significantly prevented this change in a dose-dependent manner | prevention of the diabetes induced cross-linking ([5]; highest dose (50 mg/kg/day orally)): 80% | Collagen Solubility ([5]; Diabetic, 12.5 mg/kg/day): 66.7 ± 1.2% | Collagen Solubility ([5]; Diabetic, 50 mg/kg/day): 75.9 ± 0.4% | Collagen Solubility ([5]; Normal, 50 mg/kg/day): 88.2 ± 0.2% | formation of fluorescent compounds (advanced glycosylation end products) (bovine serum albumin): dramatically reduced by as much as eightfold
